Source: patent US9073893B2, “3-Oxo-2,3-dihydro-1H-indazole-4-carboxamide derivatives as PARP-1 inhibitors” (priority 2011, dated 2015)

Assays:
[1] = target: PARP-2 (Homo sapiens (Human), UniProt Q9UGN5); conditions: probe P1; for DC50: read-out: PARP-2 (DC50 μM); for Kd: read-out: PARP-2 (Kd μM)
Experimental: (§1) Affinity evaluation of the tested compounds and their selectivity with respect to the different PARP isoforms of interest was assessed in a displacement assay.
(§2) a) providing a reaction mixture containing:
(§3) the PARP protein isoform under investigation,
a compound of formula (IP):
(§4) wherein R11 is hydrogen or a methyl group, B is (CH2)n—NH group wherein n is 2 to 6; m is 0 or 1 and X^− is a counterion, and
serial dilutions of the test compound;
(§5) b) comparing the polarization signal generated in the absence of the test compound with the one generated in the presence of different concentrations of the test compound, and
(§6) c) evaluating the ability of the test compound to displace the compound of formula (IP) as defined above indicated from a decreased fluorescence polarization level.
(§7) The 5H-phenanthridin-6-one-derived probe (IP) was selected for its capability of binding to the PARP proteins, both encompassing full-length native proteins and fragment thereof.
(§8) The polarization signal can be measured, e.g., by a plate reader such as the Saphire2 (Tecan). Data analysis was performed, e.g., by using the Dynafit software. Displacement data were also fitted, e.g., by using Excel spreadsheet (Microsoft Inc. Seattle, USA) to a four parameter logistic model (4PL), or Hill-Slope model. The assay was used to test compounds of the present invention. […] Specific probes of formula (IP) used in the assay are: • P1. 9-Dimethylamino-11,11-dimethyl-1-(3-{methyl-[(6-oxo-5,6-dihydro-phenanthridin-2-ylcarbamoyl)-methyl]-carbamoyl}-propyl)-2,3,4,11-tetrahydro-naphtho[2,3-g]quinolinium trifluoroacetate; • P2. 9-Dimethylamino-11,11-dimethyl-1-[3-(3-{[(6-oxo-5,6-dihydro-phenanthridin-2-ylcarbamoyl)-methyl]-amino}-propylcarbamoyl)-propyl]-2,3,4,11-tetrahydro-naphtho[2,3-g]quinolinium trifluoroacetate; • P3. 9-Dimethylamino-11,11-dimethyl-1-[3-(6-{[(6-oxo-5,6-dihydro-phenanthridin-2-ylcarbamoyl)-methyl]-amino}-hexylcarbamoyl)-propyl]-2,3,4,11-tetrahydro-naphtho[2,3-g]quinolinium trifluoroacetate.

[2] = target: PARP-3 (Homo sapiens (Human), UniProt Q9Y6F1); conditions: probe P1; for DC50: read-out: PARP-3 (DC50 μM); for Kd: read-out: PARP-3 (Kd μM)
Experimental: as §1, §2, §3
a compound of formula (IP):
as §4
serial dilutions of the test compound;
as §5, §6, §7, §8

[3] = target: PARP-1 (Homo sapiens (Human), UniProt P09874); conditions: for DC50: read-out: PARP-1 (DC50 μM), probe P1, <0.25 = assay sensitivity limit; for Kd: read-out: PARP-1 (Kd μM), probe P3, <0.01 = assay sensitivity limit
PARP-1, sequence (P09874 whole entry): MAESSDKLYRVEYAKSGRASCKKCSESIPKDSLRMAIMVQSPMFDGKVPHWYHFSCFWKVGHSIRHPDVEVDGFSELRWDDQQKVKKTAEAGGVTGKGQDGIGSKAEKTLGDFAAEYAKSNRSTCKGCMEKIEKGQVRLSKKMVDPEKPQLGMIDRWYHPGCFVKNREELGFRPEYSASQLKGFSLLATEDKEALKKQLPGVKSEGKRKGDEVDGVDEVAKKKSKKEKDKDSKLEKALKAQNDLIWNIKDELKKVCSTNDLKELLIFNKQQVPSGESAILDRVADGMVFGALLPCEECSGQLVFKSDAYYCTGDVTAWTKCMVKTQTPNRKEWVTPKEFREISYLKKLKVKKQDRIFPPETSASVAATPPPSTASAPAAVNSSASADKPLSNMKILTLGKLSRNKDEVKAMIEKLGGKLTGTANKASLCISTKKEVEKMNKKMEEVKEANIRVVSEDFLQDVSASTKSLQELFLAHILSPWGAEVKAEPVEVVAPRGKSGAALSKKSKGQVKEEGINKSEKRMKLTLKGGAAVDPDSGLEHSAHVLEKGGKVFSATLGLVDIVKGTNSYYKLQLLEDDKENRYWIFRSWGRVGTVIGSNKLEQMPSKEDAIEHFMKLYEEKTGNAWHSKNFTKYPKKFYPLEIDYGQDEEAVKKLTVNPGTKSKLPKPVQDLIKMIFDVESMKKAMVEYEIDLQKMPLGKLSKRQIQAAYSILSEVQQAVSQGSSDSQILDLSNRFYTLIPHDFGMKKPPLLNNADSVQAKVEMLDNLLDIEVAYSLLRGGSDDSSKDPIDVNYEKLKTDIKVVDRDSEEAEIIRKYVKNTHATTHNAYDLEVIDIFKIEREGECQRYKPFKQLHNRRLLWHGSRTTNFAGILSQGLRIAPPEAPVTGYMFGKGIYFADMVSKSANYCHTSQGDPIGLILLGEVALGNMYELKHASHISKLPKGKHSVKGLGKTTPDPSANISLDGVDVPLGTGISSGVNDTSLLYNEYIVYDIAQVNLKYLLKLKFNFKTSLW
Experimental: as §1, §2, §3
a compound of formula (IP):
as §4
serial dilutions of the test compound;
as §5, §6, §7, §8

[4] = Pharmacokinetics and oral bioavailability in the mouse; assay type: in vivo; conditions: for clearance / Vd / AUC / half-life: male, Balb, Nu/Nu, plasma; for clearance / Vd: IV bolus 10 mg/kg; for clearance / Vd / AUC / half-life / C-max (oral): mean; for clearance: read-out: CL (IV bolus); for Vd: read-out: Vdss (IV bolus); for AUC / half-life / C-max (oral): oral 10 mg/kg; for half-life: read-out: T½ (oral) (converted); for F on AUC: oral vs IV dose-normalized AUC, 10 mg/kg
Experimental: A single administration at the dose of 10 mg/kg was given and three male animals for each route were used. […] After capping and vortex mixing, the plate was centrifuged for 15 minutes at 4000 rpm. The supernatant was considered as final extract and injected onto the LC-MS-MS system (UPLC system: Waters Acquity using BEH C18 50*2.1 mm 1.7 μm analytical column; MS instrument: Waters TQD equipped with Electro-Spray source operating in positive ion mode). Lower limit of quantification is 5.0 ng/mL, upper limit of quantification is 5000 ng/mL. Non-compartmental method (linear trapezoidal rule and linear regression analysis of natural log-transformed plasma concentrations vs. time data) was used. Absolute bioavailability (F) was calculated from the ratio of average oral to IV (intravenous) dose-normalized plasma AUC (area under curve) values.

[5] = system: Capan-1 human pancreatic cancer tumors
Experimental: Fragments of Capan-1 human pancreatic cancer tumors were implanted subcutaneously. […] Each group included seven animals. The treatment started one day after randomization. Compounds of formula (I) were administered by oral route as a methocel suspension. Tumor dimension was measured regularly by calipers during the experiments and tumor mass was calculated as described in Simeoni M. et al., Cancer Res 2004, 64, 1094-1101.
Temozolomide was administered by oral route at the dose of 50 mg/kg on days 3, 4, 5, 6, 7 and 8. Tumor growth and body weight were measured every 3 days. Tumor growth was assessed by caliper. The two diameters were recorded and the tumor weight was calculated according to the following formula: length (mm)×width^2/2. […] This delay (T−C value) was defined as the difference of time (in days) required for the treatment group (T) and the control group (C) tumors to reach a predetermined size (1 g). Toxicity was evaluated on the basis of body weight reduction and animal survival rate.

[6] = system: hydrogen peroxide induced PAR formation in HeLa cells; assay: cells; conditions: Homo sapiens, read-out: PAR assay (IC50 μM)
Experimental: Cellular activity of PARP-1 inhibitors was assessed by measuring the inhibition of the hydrogen peroxide induced PAR formation in HeLa cells (ECACC). Cellular PAR levels were measured by immunocytochemistry, and quantified using an ArrayScan vTi instrument (Cellomics Thermo Scientific).
Studies were performed as follows: 6000 cells/well were seeded in 96 well plates (Perkin Elmer) in MEM/10% FCS and incubated for 24 hours at 37° C., 5% carbon dioxide. Test compounds were then added at the required concentration for 30 minutes. DNA damage was then induced adding hydrogen peroxide at the concentration of 0.1 mM for 15 minutes. Concentration curves were prepared in MEM/10% FCS from compound stocks in DMSO, and final DMSO concentration was 0.002% (v/v). Duplicate wells for each concentration point were prepared with a typical highest compound concentration of 20 μM and serial dilution 1:3. Plates were dried and fixed adding cold methanol-acetone (70:30) solution for 15 minutes at room temperature, fixing solution was aspired and wells were air dried for 5 minutes and then dehydrated in PBS. Non-specific binding sites were blocked by incubating wells for 30 minutes in PBS containing 5% (w/v) FBS 0.05% tween20. Wells were then incubated for 1 hour at room temperature in PBS containing anti PAR mouse monoclonal antibody (Anti-PAR, Mouse mAb 10H, Tulip Cat N° 1020) diluted 1:200 in blocking solution. After 3 washes in PBS, wells incubated in PBS (w/v) 5% FBS 0.05% Tween20 containing 2 μg/mL Cy2-conjugated Goat anti mouse secondary antibody (Amersham Pharmacia Biotech cat. N° PA 42002) (Absorption maximum 489 nm fluorescence maximum 506 nm) and 1 μg/mL DAPI (Absorption maximum 359 nm fluorescence maximum 461 nm) (4′,6-diamidino-2-phenyindole dilactate) (Sigma cat. N° D9564), a high sensitivity dye for nucleic acid staining. After washing further 3 times in PBS, cellular PAR immunoreactivity was assessed using the ArrayScan vTi instrument, with a Zeiss 10×0.5 N.A. objective, and applying the Cytotoxicity. V3 algorithm (Cellomics/Thermo Fisher) with a XF100 filter. At least 10 fields, corresponding to at least 900 cells, were read for each well.
X is the logarithm of concentration, IC50 is the response; IC50 starts at bottom and goes to top with a sigmoid shape.

[7] = system: ovarian cancer patients with confirmed BRCA-1 mutations; conditions: phase I, monotherapy, preliminary data; cited from earlier work
[8] = temozolomide alone 50 mg/kg oral, days 3-8

PARP-2, sequence (Q9UGN5 whole entry): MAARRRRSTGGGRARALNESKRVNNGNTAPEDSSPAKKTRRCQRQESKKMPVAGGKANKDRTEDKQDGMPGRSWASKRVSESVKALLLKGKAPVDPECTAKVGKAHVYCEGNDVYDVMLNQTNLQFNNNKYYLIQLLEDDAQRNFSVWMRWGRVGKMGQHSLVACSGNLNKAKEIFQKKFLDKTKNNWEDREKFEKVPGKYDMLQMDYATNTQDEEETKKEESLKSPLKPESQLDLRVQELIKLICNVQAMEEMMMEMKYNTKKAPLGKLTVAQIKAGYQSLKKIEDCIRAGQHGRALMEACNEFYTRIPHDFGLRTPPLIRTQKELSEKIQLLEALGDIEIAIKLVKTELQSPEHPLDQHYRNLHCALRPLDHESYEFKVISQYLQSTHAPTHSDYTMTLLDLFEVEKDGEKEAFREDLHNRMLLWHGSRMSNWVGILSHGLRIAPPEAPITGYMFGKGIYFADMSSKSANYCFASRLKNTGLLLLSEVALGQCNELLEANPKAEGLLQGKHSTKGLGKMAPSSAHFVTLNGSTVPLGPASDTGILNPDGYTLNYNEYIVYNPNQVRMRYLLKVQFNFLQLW
PARP-3, sequence (Q9Y6F1 whole entry): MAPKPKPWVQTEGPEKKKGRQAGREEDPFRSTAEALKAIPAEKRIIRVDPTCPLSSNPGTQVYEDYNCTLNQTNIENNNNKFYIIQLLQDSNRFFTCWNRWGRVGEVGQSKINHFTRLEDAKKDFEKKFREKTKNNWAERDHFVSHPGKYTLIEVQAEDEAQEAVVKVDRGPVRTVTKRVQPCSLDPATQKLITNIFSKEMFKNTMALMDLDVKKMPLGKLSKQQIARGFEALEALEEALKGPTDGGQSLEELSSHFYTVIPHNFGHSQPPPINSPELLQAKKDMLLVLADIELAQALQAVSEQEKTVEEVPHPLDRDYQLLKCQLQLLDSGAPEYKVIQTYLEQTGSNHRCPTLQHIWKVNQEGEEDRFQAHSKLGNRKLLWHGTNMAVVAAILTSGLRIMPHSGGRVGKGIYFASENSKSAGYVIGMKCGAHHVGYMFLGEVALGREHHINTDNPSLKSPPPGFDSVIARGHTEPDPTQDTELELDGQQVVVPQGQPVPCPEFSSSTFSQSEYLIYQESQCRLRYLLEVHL

SMILES	DC50 [1] [µM]	DC50 [2] [µM]	Kd [1] [µM]	also measured
Cn1c2cccc(C(N)=O)c2c(=O)n1C1CCN(CC2CCCCC2)CC1 [Compound 33, 2-[1-(cyclohexylmethyl)piperidin-4-yl]-1-methyl-3-oxo-2,3-dihydro-1H-indazole-4-carboxamide]	> 10	2.9		
NC(=O)c1cc(F)cc2[nH]n(C3CCNCC3)c(=O)c12 [Compound 20, 6-fluoro-3-oxo-2-(piperidin-4-yl)-2,3-dihydro-1H-indazole-4-carboxamide]	0.5	0.25	0.3	DC50 [3]: < 0.25 µM; Kd [3]: < 0.01 µM; Kd [2]: 0.05 µM
NC(=O)c1cccc2[nH]n(C3CCN(Cc4ccco4)CC3)c(=O)c12 [Compound 66, 2-[1-(furan-2-ylmethyl)piperidin-4-yl]-3-oxo-2,3-dihydro-1H-indazole-4-carboxamide]	> 10	0.58		
NC(=O)c1cccc2[nH]n(C3CCN(C4CCCCC4)CC3)c(=O)c12 [Compound 3, 2-(1-cyclohexylpiperidin-4-yl)-3-oxo-2,3-dihydro-1H-indazole-4-carboxamide]	> 10	> 10		clearance [4]: 17.8 mL/min/kg; Vd [4]: 1.3 L/kg; AUC [4]: 14.3 µM·h; half-life [4]: 1.77 h; C-max (oral) [4]: 5.6 µM; F on AUC [4]: 67%; T-C (days) ([5]; cpd 3 200 mg/kg oral days 1-12 + temozolomide 50 mg/kg oral days 3-8, time to reach 1 g): superior
NC(=O)c1cccc2[nH]n(C3CCN(C4CCC(F)(F)CC4)CC3)c(=O)c12 [Compound 4, 2-[1-(4,4-difluorocyclohexyl)piperidin-4-yl]-3-oxo-2,3-dihydro-1H-indazole-4-carboxamide]	> 10	> 10		
Cn1c2cccc(C(N)=O)c2c(=O)n1C1CCN(C2CCCCC2)CC1 [Compound 5, 2-(1-cyclohexylpiperidin-4-yl)-1-methyl-3-oxo-2,3-dihydro-1H-indazole-4-carboxamide]	0.91	2.15	0.54	clearance [4]: 41 mL/min/kg; Vd [4]: 4.3 L/kg; AUC [4]: 10.6 µM·h; half-life [4]: 1.89 h; C-max (oral) [4]: 4.77 µM; F on AUC [4]: 109%
Cn1c2cccc(C(N)=O)c2c(=O)n1C1CCN(CC2CC=CCC2)CC1 (stereo not drawn) [Compound 65, 2-[1-(cyclohex-3-en-1-ylmethyl)piperidin-4-yl]-1-methyl-3-oxo-2,3-dihydro-1H-indazole-4-carboxamide]	4.19	1.78		clearance [4]: 53.8 mL/min/kg; Vd [4]: 3.4 L/kg; AUC [4]: 4.06 µM·h; half-life [4]: 1.16 h; C-max (oral) [4]: 1.93 µM; F on AUC [4]: 50%
Cn1c2cccc(C(N)=O)c2c(=O)n1C1CCNCC1 [Compound 9, 1-methyl-3-oxo-2-(piperidin-4-yl)-2,3-dihydro-1H-indazole-4-carboxamide]	< 0.25	0.45	0.14	DC50 [3]: < 0.25 µM; Kd [3]: 0.014 µM; IC50 [6]: 0.05 µM
Cn1c2cccc(C(N)=O)c2c(=O)n1C1CCN(C2CCCC2)CC1 [Compound 7, 2-(1-cyclopentylpiperidin-4-yl)-1-methyl-3-oxo-2,3-dihydro-1H-indazole-4-carboxamide]	< 0.25	2.58	0.05	
Cn1c2cccc(C(N)=O)c2c(=O)n1C1CCN(Cc2ccco2)CC1 [Compound 67, 2-[1-(furan-2-ylmethyl)piperidin-4-yl]-1-methyl-3-oxo-2,3-dihydro-1H-indazole-4-carboxamide]	2.29	2.56		
O=C(c1cc(Cc2n[nH]c(=O)c3ccccc23)ccc1F)N1CCN(C(=O)C2CC2)CC1 [Olaparib]				partial responses [7]: 4 out of 10
NC(=O)c1cccc2[nH]n(C3CCN(CC4CC=CCC4)CC3)c(=O)c12 (stereo not drawn) [Compound 64, 2-[1-(cyclohex-3-en-1-ylmethyl)piperidin-4-yl]-3-oxo-2,3-dihydro-1H-indazole-4-carboxamide]	> 10	> 10		
NC(=O)c1cccc2[nH]n(C3CCN(Cc4cccs4)CC3)c(=O)c12 [Compound 62, 3-oxo-2-[1-(thiophen-2-ylmethyl)piperidin-4-yl]-2,3-dihydro-1H-indazole-4-carboxamide]	> 10	0.46		DC50 [3]: < 0.25 µM; Kd [3]: 0.022 µM; IC50 [6]: 0.07 µM
NC(=O)c1cccc2[nH]n(C3CCN(CC4CCCCC4)CC3)c(=O)c12 [Compound 31, 2-[1-(cyclohexylmethyl)piperidin-4-yl]-3-oxo-2,3-dihydro-1H-indazole-4-carboxamide]	> 10	> 10		
NC(=O)c1cc(F)cc2[nH]n(C3CCN(C4CCCCC4)CC3)c(=O)c12 [Compound 23, 2-(1-cyclohexylpiperidin-4-yl)-6-fluoro-3-oxo-2,3-dihydro-1H-indazole-4-carboxamide]	5.94	> 10	5	
Cn1c2cccc(C(N)=O)c2c(=O)n1C1CCN(C2CCC(F)(F)CC2)CC1 [Compound 6, 2-[1-(4,4-difluorocyclohexyl)piperidin-4-yl]-1-methyl-3-oxo-2,3-dihydro-1H-indazole-4-carboxamide]	3.95	2.34	1.88	clearance [4]: 52.7 mL/min/kg; Vd [4]: 2.9 L/kg; AUC [4]: 3.87 µM·h; half-life [4]: 1.13 h; C-max (oral) [4]: 3.07 µM; F on AUC [4]: 49%; DC50 [3]: < 0.25 µM; Kd [3]: < 0.01 µM; IC50 [6]: 0.1 µM
NC(=O)c1cccc2[nH]n(C3CCNCC3)c(=O)c12 [Compound 1, 3-oxo-2-(piperidin-4-yl)-2,3-dihydro-1H-indazole-4-carboxamide]	1.5	0.58	0.78	DC50 [3]: < 0.25 µM; Kd [3]: 0.08 µM
Cn1nnc2c(C(N)=O)ncn2c1=O [temozolomide]				BWL (%) [5, 8]: 2%; Max TGI (%) [5, 8]: 13%; Toxicity ([5]; temozolomide alone 50 mg/kg oral, days 3-8, seven animals per group): 0/7; T-C ([5]; temozolomide alone 50 mg/kg oral, days 3-8, time to reach 1 g): 1 days
NC(=O)c1cccc2[nH]n(C3CCN(C4CCC4)CC3)c(=O)c12 [Compound 16, 2-(1-cyclobutylpiperidin-4-yl)-3-oxo-2,3-dihydro-1H-indazole-4-carboxamide]	2.57	> 10		
NC(=O)c1cccc2[nH]n(C3CCN(C4CCCC4)CC3)c(=O)c12 [Compound 2, 2-(1-cyclopentylpiperidin-4-yl)-3-oxo-2,3-dihydro-1H-indazole-4-carboxamide]	2	> 10	1.49	
CC(C)N1CCC(n2c(=O)c3c(C(N)=O)cccc3n2C)CC1 [Compound 14, 1-methyl-3-oxo-2-[1-(propan-2-yl)piperidin-4-yl]-2,3-dihydro-1H-indazole-4-carboxamide]	< 0.25	> 10	0.03	
Cn1c2cccc(C(N)=O)c2c(=O)n1C1CCN(C2CCC2)CC1 [Compound 18, 2-(1-cyclobutylpiperidin-4-yl)-1-methyl-3-oxo-2,3-dihydro-1H-indazole-4-carboxamide]	< 0.25	2.88		
Cn1c2cc(F)cc(C(N)=O)c2c(=O)n1C1CCN(C2CCCCC2)CC1 [Compound 22, 2-(1-cyclohexylpiperidin-4-yl)-6-fluoro-1-methyl-3-oxo-2,3-dihydro-1H-indazole-4-carboxamide]	0.79	0.7	0.5	clearance [4]: 38.7 mL/min/kg; Vd [4]: 6.4 L/kg; AUC [4]: 12.8 µM·h; half-life [4]: 2.25 h; C-max (oral) [4]: 4.72 µM; F on AUC [4]: 150%; Kd [2]: 0.27 µM
CN1CCC(n2[nH]c3cccc(C(N)=O)c3c2=O)CC1 [Compound 8, 2-(1-methylpiperidin-4yl)-3-oxo-2,3-dihydro-1H-indazole-4-carboxamide]	< 0.25	2.75	0.04	DC50 [3]: < 0.25 µM; Kd [3]: 0.14 µM; IC50 [6]: 0.6 µM
Cn1c2cc(F)cc(C(N)=O)c2c(=O)n1C1CCNCC1 [Compound 21, 6-fluoro-1-methyl-3-oxo-2-(piperidin-4-yl)-2,3-dihydro-1H-indazole-4-carboxamide]	< 0.25	0.22	0.07	DC50 [3]: < 0.25 µM; Kd [3]: < 0.01 µM; Kd [2]: 0.04 µM
Cn1c2cccc(C(N)=O)c2c(=O)n1C1CCN(Cc2cccs2)CC1 [Compound 63, 1-methyl-3-oxo-2-[1-(thiophen-2-ylmethyl)piperidin-4-yl]-2,3-dihydro-1H-indazole-4-carboxamide]	3.56	1.42		
